Data reported in the supplement of paper PMC10883282.
± gives the standard deviation of the averaged measurements.

How the values were obtained:
Experiment in all cases: relative viability vs DMSO control (72 h) (fraction); higher = more viable cells
[1] = tested on: G401
How it was run: (§1)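 ATPLite readings, expressed as percent growth and averaged over up to triplicate wells, provided relative viability. Before reading, sarcoma cell lines seeded in 384-well plates to reach 80–90% confluence received 2.5 µl of serially diluted compound after 24 h, from source plates of 10 mM to 0.0002 mM. Plates were held 72 h at 37 °C, 5% CO2, with 0.1% DMSO as vehicle and a 5 µM positive control. The data were rescaled to 1 for full and 0 for none.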

[2] = tested on: A204
How it was run: as §1

[3] = tested on: SW1353
How it was run: as §1

[4] = tested on: SK-ES-1
How it was run: as §1

[5] = tested on: HT1080
How it was run: as §1

[6] = tested on: SW684
How it was run: as §1

[7] = tested on: SW982
How it was run: as §1

[8] = tested on: SW872
How it was run: as §1

[9] = tested on: RD-ES
How it was run: as §1

[10] = tested on: KHOS-240S
How it was run: as §1

[11] = tested on: KHOS-NP
How it was run: as §1

[12] = tested on: SYO-1
How it was run: as §1

CCc1nc(C(N)=O)c(Nc2ccc(N3CCC(N4CCN(C)CC4)CC3)c(OC)c2)nc1NC1CCOCC1 [Gilteritinib]
Settings	relative viability
[1], 60 pM	1.03 ± 0.021
[1], 0.00018 µM	0.985 ± 0.042
[1], 0.00053 µM	0.968 ± 0.027
[1], 0.0016 µM	0.998 ± 0.022
[1], 0.0048 µM	0.981 ± 0.02
[1], 0.014 µM	0.979 ± 0.031
[1], 0.043 µM	0.971 ± 0.033
[1], 0.13 µM	0.851 ± 0.086
[1], 0.389 µM	0.661 ± 0.056
[1], 1.167 µM	0.478 ± 0.0066
[1], 3.5 µM	0.457 ± 0.0047
[2], 60 pM	1.05 ± 0.034
[2], 0.00018 µM	1.01 ± 0.022
[2], 0.00053 µM	1.04 ± 0.059
[2], 0.0016 µM	1.04 ± 0.059
[2], 0.0048 µM	1.02 ± 0.024
[2], 0.014 µM	1.02 ± 0.032
[2], 0.043 µM	1.03 ± 0.041
[2], 0.13 µM	0.943 ± 0.032
[2], 0.389 µM	0.742 ± 0.05
[2], 1.167 µM	0.502 ± 0.035
[2], 3.5 µM	0.385 ± 0.025
[3], 60 pM	1.04 ± 0.041
[3], 0.00018 µM	1.04 ± 0.035
[3], 0.00053 µM	1 ± 0.019
[3], 0.0016 µM	1 ± 0.079
[3], 0.0048 µM	0.932 ± 0.038
[3], 0.014 µM	0.955 ± 0.07
[3], 0.043 µM	0.972 ± 0.059
[3], 0.13 µM	0.896 ± 0.013
[3], 0.389 µM	0.779 ± 0.026
[3], 1.167 µM	0.65 ± 0.0091
[3], 3.5 µM	0.617 ± 0.053
[4], 60 pM	0.996 ± 0.028
[4], 0.00018 µM	1.03 ± 0.061
[4], 0.00053 µM	1.07 ± 0.025
[4], 0.0016 µM	1.01 ± 0.035
[4], 0.0048 µM	0.979 ± 0.0026
[4], 0.014 µM	0.964 ± 0.046
[4], 0.043 µM	0.932 ± 0.017
[4], 0.13 µM	0.697 ± 0.026
[4], 0.389 µM	0.208 ± 0.0091
[4], 1.167 µM	0.112 ± 0.0077
[4], 3.5 µM	0.119 ± 0.0046
[5], 60 pM	1.08 ± 0.054
[5], 0.00018 µM	1.032 ± 0.0021
[5], 0.00053 µM	0.999 ± 0.012
[5], 0.0016 µM	1.04 ± 0.028
[5], 0.0048 µM	1.07 ± 0.032
[5], 0.014 µM	1.05 ± 0.061
[5], 0.043 µM	1.05 ± 0.068
[5], 0.13 µM	1.05 ± 0.039
[5], 0.389 µM	1 ± 0.049
[5], 1.167 µM	0.6791 ± 0.0029
[5], 3.5 µM	0.595 ± 0.011
[6], 60 pM	1.08 ± 0.034
[6], 0.00018 µM	1.13 ± 0.062
[6], 0.00053 µM	1.11 ± 0.076
[6], 0.0016 µM	1.14 ± 0.032
[6], 0.0048 µM	1.15 ± 0.062
[6], 0.014 µM	1.13 ± 0.056
[6], 0.043 µM	1.09 ± 0.031
[6], 0.13 µM	0.889 ± 0.061
[6], 0.389 µM	0.633 ± 0.043
[6], 1.167 µM	0.506 ± 0.019
[6], 3.5 µM	0.491 ± 0.011
[7], 60 pM	0.9618 ± 0.0074
[7], 0.00018 µM	0.996 ± 0.032
[7], 0.00053 µM	0.978 ± 0.02
[7], 0.0016 µM	0.967 ± 0.03
[7], 0.0048 µM	0.988 ± 0.047
[7], 0.014 µM	0.947 ± 0.041
[7], 0.043 µM	0.945 ± 0.038
[7], 0.13 µM	0.612 ± 0.029
[7], 0.389 µM	0.277 ± 0.021
[7], 1.167 µM	0.195 ± 0.005
[7], 3.5 µM	0.2 ± 0.018
[8], 60 pM	1.03 ± 0.038
[8], 0.00018 µM	1.01 ± 0.072
[8], 0.00053 µM	1.01 ± 0.02
[8], 0.0016 µM	1.01 ± 0.029
[8], 0.0048 µM	0.98 ± 0.024
[8], 0.014 µM	0.949 ± 0.089
[8], 0.043 µM	0.905 ± 0.064
[8], 0.13 µM	0.787 ± 0.046
[8], 0.389 µM	0.493 ± 0.0078
[8], 1.167 µM	0.341 ± 0.029
[8], 3.5 µM	0.305 ± 0.021
[9], 60 pM	0.986 ± 0.015
[9], 0.00018 µM	0.961 ± 0.015
[9], 0.00053 µM	0.9574 ± 0.0086
[9], 0.0016 µM	0.968 ± 0.014
[9], 0.0048 µM	0.963 ± 0.03
[9], 0.014 µM	0.938 ± 0.037
[9], 0.043 µM	0.88 ± 0.036
[9], 0.13 µM	0.687 ± 0.049
[9], 0.389 µM	0.316 ± 0.02
[9], 1.167 µM	0.11 ± 0.0047
[9], 3.5 µM	0.14 ± 0.0068
[10], 60 pM	1.08 ± 0.027
[10], 0.00018 µM	1.06 ± 0.026
[10], 0.00053 µM	1.08 ± 0.042
[10], 0.0016 µM	1.04 ± 0.017
[10], 0.0048 µM	1.08 ± 0.06
[10], 0.014 µM	1.02 ± 0.045
[10], 0.043 µM	0.985 ± 0.065
[10], 0.13 µM	0.913 ± 0.028
[10], 0.389 µM	0.848 ± 0.057
[10], 1.167 µM	0.509 ± 0.0098
[10], 3.5 µM	0.398 ± 0.014
[11], 60 pM	1.08 ± 0.03
[11], 0.00018 µM	1.12 ± 0.02
[11], 0.00053 µM	1.07 ± 0.019
[11], 0.0016 µM	1.1 ± 0.029
[11], 0.0048 µM	1.061 ± 0.0053
[11], 0.014 µM	1.06 ± 0.0063
[11], 0.043 µM	1.03 ± 0.036
[11], 0.13 µM	1.02 ± 0.044
[11], 0.389 µM	0.959 ± 0.029
[11], 1.167 µM	0.83 ± 0.031
[11], 3.5 µM	0.695 ± 0.038
[12], 60 pM	0.959 ± 0.018
[12], 0.00018 µM	0.921 ± 0.038
[12], 0.00053 µM	0.915 ± 0.02
[12], 0.0016 µM	0.848 ± 0.053
[12], 0.0048 µM	0.815 ± 0.042
[12], 0.014 µM	0.791 ± 0.064
[12], 0.043 µM	0.734 ± 0.04
[12], 0.13 µM	0.637 ± 0.08
[12], 0.389 µM	0.481 ± 0.029
[12], 1.167 µM	0.389 ± 0.044
[12], 3.5 µM	0.369 ± 0.039
